The target in data set [1] is T1, α-glucosidase (Saccharomyces cerevisiae, UniProt P53341).
T1 construct: purchased Sigma-Aldrich
Put plainly: 3D fluorescence spectra of α-glucosidase with compounds. The format is binding. As to conditions: α-glucosidase 5 μM. The text has this: The 3D fluorescence spectra of α-glucosidase with compounds 9, 11, 13, 18, and 19 was investigated to analyze the effect of compounds on the structure of α-glucosidase, respectively. Two important characteristic peaks appeared in the 3D fluorescence spectra of α-glucosidase (Figure 6a,c,e,g,i), including Peak 1 ([…]), corresponding to the main chain structure of the polypeptide, and Peak 2 ([…]), corresponding to tyrosine and tryptophan residues. […] (Figure 6b,d,f,h,j). Previously, 3D fluorescence spectra have been used to determine protein conformation changes.
(§1) α-Glucosidase from Saccharomyces cerevisiae (EC 3.2.1.20) was purchased from Sigma-Aldrich. p-Nitrophenyl-α-D-[…] (PNPG) was obtained from Abcam. Other reagents were commercially available.
Compounds 9, 11, 13, 18, and 19 were added to α-glucosidase (5 μM) in 100 μL of PBS and incubated for 5 min, then the 3D fluorescence spectra of the mixture were recorded [32]^. The excitation and emission wavelengths were 200–500 nm and the slit width was 2.5 nm. All data were imported into Matlab for processing.

Data set [2] has as its target T2, α-glucosidase from Saccharomyces cerevisiae (Saccharomyces cerevisiae, UniProt P53341).
T2 construct: purchased Sigma-Aldrich
Put plainly: biochemical. The format is biochemical. As to conditions: α-glucosidase 0.1 U/mL, PNPG 0.25 mM, pH 6.8, 37 °C; read-out: α-Glucosidase inhibitory activity IC50. The method, then: as §1
After the addition of PNPG (0.25 mM), the change in absorbance was measured at 405 nm. […] All experiments were performed four times.

Another data set concerns hepatocytes LO2 cells. The data set is described as follows: In vitro cytotoxicity, MTT method. As to conditions: 24 h, up to a concentration of 32 μM. The format is cell-based. The method, then:
The in vitro cytotoxicity of compounds 9, 11, 13, 18, and 19 against hepatocytes LO2 cells was detected using the MTT method.
The in vitro cytotoxicity of compound 11 against hepatocytes LO2 cells was assayed using the MTT method. LO2 cells were cultured in DMEM containing 10% FBS, 100 IU/mL penicillin, and 100 IU/mL streptomycin at 37 °C under 5% CO2. An amount of 100 μL of LO2 cells was seeded into a 96-well plate (5000 per well) for 24 h, and was then treated with compounds 9, 11, 13, 18, and 19 for 24 h, respectively. Then, MTT solution was added into each well and incubated for 4 h. An amount of […] of DMSO was used to dissolve the obtained crystallization. Then, this absorbance was determined at 490 nm. Each sample was performed in triplicate.

The target in data set [3] is T1, α-glucosidase. Put plainly: α-glucosidase inhibition kinetics (enzyme kinetics and Lineweaver-Burk substrate kinetics). The format is biochemical. As to conditions: for inhibition type (substrate kinetics): Lineweaver-Burk plots; for Ki / Kis / Vmax: inhibition kinetics constant; for reversibility of inhibition (enzyme kinetics): plots of remaining enzyme activity versus enzyme concentration.
Description: Compounds 9, 11, 13, 18, and 19 with different α-glucosidase inhibitory activity were selected as representative compounds to reveal the inhibition mechanism of indolo[1,2-b]isoquinoline derivatives (1–21) on α-glucosidase by the implementation of an inhibition kinetics study. […] For substrate kinetics (Figure 5b,d,f,h,j), the Lineweaver-Burk plots of remaining enzyme activity versus […] treated with compounds 9, 11, 13, 18, and 19 intersected at one point in the second quadrant, respectively. The inhibition kinetics study was an effective method by which to understand the inhibition mechanism of the inhibitor against the target protein. In a substrate kinetics study, different inhibition mechanisms of inhibitors manifested as different intersection positions of Lineweaver-Burk plots. […] Moreover, compounds 9, 11, 13, 18, and 19 bind with both free enzyme and enzyme-substrate complexes to inhibit α-glucosidase. The inhibition kinetics constants of compounds 9, 11, 13, 18, and 19 were obtained and are listed in Table 2, including Ki, Kis, Km, and Vmax values, which might be helpful to understand the inhibition mechanism.
as §1
The kinetics of enzyme inhibition for compounds 9, 11, 13, 18, and 19 were obtained by plotting the enzymatic reaction rate versus enzyme concentration with or without compounds 9, 11, 13, 18, and 19, and the kinetics of substrate inhibition were measured using Lineweaver Burk plots of the enzymatic reaction rate versus substrate concentration with or without compounds 9, 11, 13, 18, and 19 [37, 38, 39, 40].

Data set [4] addresses T1, α-glucosidase. Put plainly: CD spectra, secondary structure contents of α-glucosidase. As to conditions: for effect on CD band intensity of α-glucosidase: 190~280 nm. The format is binding.
Description: CD spectra were also monitored to study the effect of compounds 9, 11, 13, 18, and 19 on the conformational changes of α-glucosidase. As shown in Figure 7a–e, α-glucosidase presented two negative CD bands in the region of 190~280 nm, which was owed to the electronic transitions of n→π* of α-helical bonds. […] While treatment of compounds 9, 13, 18, and 19 led to an increase of α-helix and a reduction of β-sheet, β-turn, and random coils, respectively (Table 3). CD spectra have been an important method by which to study protein structural changes and secondary structural content. Previous research has shown that the interaction of an inhibitor with α-glucosidase caused the partial folding and loosening of the α-glucosidase structure.
as §1
Compounds 9, 11, 13, 18, and 19 with different concentrations were added into α-glucosidase solution (31 μM) and incubated for 5 min, respectively, then the CD spectra of the mixture were recorded. CDNN was used to analyze the ratio of protein secondary conformations.

Where [5] appears, read: molar ratio [α-Glu]:[Comp.] 1:1.
The mark [6] stands for this setting: molar ratio [α-Glu]:[Comp.] 1:2.
The mark [7] stands for this setting: molar ratio [α-Glu]:[Comp.] 1:3.

These results are taken from paper PMC10343752, “Anti-α-Glucosidase, SAR Analysis, and Mechanism Investigation of Indolo[1,2-b]isoquinoline Derivatives” (Molecules, 2023).

Structures are written as SMILES.

T1 sequence (P53341 whole entry): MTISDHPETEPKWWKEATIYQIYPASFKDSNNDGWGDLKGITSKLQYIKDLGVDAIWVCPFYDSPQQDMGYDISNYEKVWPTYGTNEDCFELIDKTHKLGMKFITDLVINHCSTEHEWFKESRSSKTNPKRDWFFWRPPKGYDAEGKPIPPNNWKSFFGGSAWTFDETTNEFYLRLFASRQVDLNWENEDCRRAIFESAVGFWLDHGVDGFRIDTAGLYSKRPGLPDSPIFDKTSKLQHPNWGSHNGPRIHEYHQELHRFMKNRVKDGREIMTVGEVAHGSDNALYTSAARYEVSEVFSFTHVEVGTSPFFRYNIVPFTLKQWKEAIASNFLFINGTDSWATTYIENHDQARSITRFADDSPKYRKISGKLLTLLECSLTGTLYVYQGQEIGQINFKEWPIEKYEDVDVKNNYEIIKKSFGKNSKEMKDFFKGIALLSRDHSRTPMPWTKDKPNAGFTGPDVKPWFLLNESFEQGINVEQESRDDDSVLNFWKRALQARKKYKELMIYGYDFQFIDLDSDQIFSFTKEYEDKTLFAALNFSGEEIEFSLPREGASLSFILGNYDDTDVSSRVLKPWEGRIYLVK
T2 sequence (P53341 whole entry): as above

Regarding `O=C1c2ccccc2-n2c1c(-c1ccccc1)c1ccc(F)cc1c2=O` [Compound 18], the “effect on fluorescence intensity of Peak 1 and Peak 2 of α-glucosidase” value on α-glucosidase [1] is “decrease the fluorescence intensity”. In addition, the IC50 in data set [2] is 7.97 ± 0.31 µM. Further, the “effect on cell viability” value in the data set on hepatocytes LO2 cells is reported as “no significant effect on cell viability”. Besides, at α-glucosidase [3], the “inhibition type (substrate kinetics)” value was “mixed-type inhibition”, the Ki was 4.62 µM, the Kis was determined as 12.34 µM and the Vmax came out at 0.08 µM/min/mg. Besides, the “reversibility of inhibition (enzyme kinetics)” value at α-glucosidase [3] is “reversible”. Also, the “effect on CD band intensity of α-glucosidase” value at α-glucosidase [4] was “decrease in CD band intensity”. Moreover, at α-glucosidase [4] (setting [5]), the “Rndm Coil” value was determined as 35.00%, the α-Helix was determined as 11.10%, the β-Sheet worked out at 35.30% and the β-Turn was 19.40%. For the same compound, at α-glucosidase [4] (setting [6]), the “Rndm Coil” value was determined as 35.00%, the α-Helix was 11.20%, the β-Sheet is listed as 35.00% and the β-Turn worked out at 19.30%. In addition, on α-glucosidase [4] (setting [7]), the “Rndm Coil” value came to 34.70%, the α-Helix is recorded as 12.80%, the β-Sheet amounted to 35.00% and the β-Turn turned out to be 19.30%.
As for `Cc1ccc2c(c1)-n1c(c(-c3ccccc3)c3cc(C)ccc3c1=O)C2=O` [Compound 19], the “effect on fluorescence intensity of Peak 1 and Peak 2 of α-glucosidase” value on α-glucosidase [1] is “decrease the fluorescence intensity”. Moreover, the IC50 in data set [2] was found to be 41.2 ± 0.76 µM. The “effect on cell viability” value in the data set on hepatocytes LO2 cells is given as “no significant effect on cell viability”. In addition, at α-glucosidase [3], the “inhibition type (substrate kinetics)” value was “mixed-type inhibition”, the affinity corresponds to a Ki of 8.38 µM, the Kis worked out at 42.30 µM and the Vmax is 0.05 µM/min/mg. The “reversibility of inhibition (enzyme kinetics)” value on α-glucosidase [3] was “reversible”. Also, the “effect on CD band intensity of α-glucosidase” value on α-glucosidase [4] is recorded as “decrease in CD band intensity”. In addition, at α-glucosidase [4] (setting [5]), the “Rndm Coil” value was 34.60%, the α-Helix was found to be 12.90%, the β-Sheet was determined as 31.80% and the β-Turn amounted to 19.40%. Besides, at α-glucosidase [4] (setting [6]), the “Rndm Coil” value was found to be 34.70%, the α-Helix is recorded as 11.50%, the β-Sheet was 34.20% and the β-Turn was 19.30%. Moreover, at α-glucosidase [4] (setting [7]), the “Rndm Coil” value worked out at 34.90%, the α-Helix came out at 12.80%, the β-Sheet came out at 34.40% and the β-Turn is reported as 19.30%.
